Several values for one entry are separate records, joined by “and”; a condition that tells them apart may be missing. Identical values can stand only once. Inconclusive results and toxic doses are left out. Rule as the data show it: active = T/C of 150% or more; inactive = T/C below 125%.
Tested on: L1210 leukemia ip in BDF1 mice, survival T/C
Experiment: NCI In Vivo Anticancer Drug Screen. Data for tumor model L1210 Leukemia (intraperitoneal) in B6D2F1 (BDF1) mice
Conditions: endpoint: mean survival time, higher = longer survival
Procedure, shortened: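 Tumor cells were implanted, animals were treated, and survival was followed. The result divides the treated measurement by the vehicle-control measurement.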

[1] = dose: 100.0 mg/kg/injection, schedule: Q01DX001 (ip), vehicle: saline
[2] = dose: 100.0 mg/kg/injection, schedule: Q04DX003 (ip), vehicle: saline
[3] = dose: 200.0 mg/kg/injection, schedule: Q01DX001 (ip), vehicle: saline
[4] = dose: 200.0 mg/kg/injection, schedule: Q04DX003 (ip), vehicle: saline
[5] = dose: 400.0 mg/kg/injection, schedule: Q01DX001 (ip), vehicle: saline
[6] = dose: 100.0 mg/kg/injection, schedule: Q01DX001 (ip), vehicle: carboxymethylcellulose (CMC)
[7] = dose: 200.0 mg/kg/injection, schedule: Q01DX001 (ip), vehicle: carboxymethylcellulose (CMC)
[8] = dose: 400.0 mg/kg/injection, schedule: Q01DX001 (ip), vehicle: carboxymethylcellulose (CMC)
[9] = dose: 100.0 mg/kg/injection, schedule: Q04DX002 (ip), vehicle: saline with Tween-80
[10] = dose: 200.0 mg/kg/injection, schedule: Q04DX002 (ip), vehicle: saline with Tween-80
[11] = dose: 400.0 mg/kg/injection, schedule: Q04DX002 (ip), vehicle: saline with Tween-80
[12] = dose: 100.0 mg/kg/injection, schedule: Q01DX001 (ip), vehicle: Klucel (hydroxypropylcellulose) (HPC)
[13] = dose: 100.0 mg/kg/injection, schedule: Q04DX003 (ip), vehicle: Klucel (hydroxypropylcellulose) (HPC)
[14] = dose: 200.0 mg/kg/injection, schedule: Q01DX001 (ip), vehicle: Klucel (hydroxypropylcellulose) (HPC)
[15] = dose: 200.0 mg/kg/injection, schedule: Q04DX003 (ip), vehicle: Klucel (hydroxypropylcellulose) (HPC)
[16] = dose: 400.0 mg/kg/injection, schedule: Q01DX001 (ip), vehicle: Klucel (hydroxypropylcellulose) (HPC)
[17] = dose: 400.0 mg/kg/injection, schedule: Q04DX003 (ip), vehicle: Klucel (hydroxypropylcellulose) (HPC)
[18] = dose: 100.0 mg/kg/injection, schedule: Q01DX009 (ip), vehicle: Klucel (hydroxypropylcellulose) (HPC)
[19] = dose: 200.0 mg/kg/injection, schedule: Q01DX009 (ip), vehicle: Klucel (hydroxypropylcellulose) (HPC)
[20] = dose: 400.0 mg/kg/injection, schedule: Q01DX009 (ip), vehicle: Klucel (hydroxypropylcellulose) (HPC)
[21] = dose: 100.0 mg/kg/injection, schedule: Q04DX002 (ip), vehicle: Klucel (hydroxypropylcellulose) (HPC)
[22] = dose: 200.0 mg/kg/injection, schedule: Q04DX002 (ip), vehicle: Klucel (hydroxypropylcellulose) (HPC)
[23] = dose: 400.0 mg/kg/injection, schedule: Q04DX002 (ip), vehicle: Klucel (hydroxypropylcellulose) (HPC)
[24] = dose: 50.0 mg/kg/injection, schedule: Q01DX009 (ip), vehicle: saline
[25] = dose: 100.0 mg/kg/injection, schedule: Q01DX009 (ip), vehicle: saline

Measured: T/C

COc1ccc(C=Nc2ccc(O)cc2)cc1
inactive: [1] 102 % of control | [2] 101 % of control | [3] 100 % of control | [4] 108 % of control | [5] 103 % of control | dose: 400.0 mg/kg/injection, schedule: Q04DX003 (ip), vehicle: saline 101 % of control

CCCCCCCCCCC(C)c1ccc(S(=O)(=O)O)cc1 (stereo not drawn)
inactive: dose: 100.0 mg/kg/injection, schedule: Q01DX001 (ip), vehicle: saline sonified 97 % of control | dose: 200.0 mg/kg/injection, schedule: Q01DX001 (ip), vehicle: saline sonified 107 % of control

COc1cc2c(c(O)c1OCC=C(C)C)c(=O)c1ccccc1n2C
inactive: [6] 93 % of control | [7] 95 % of control | [8] 88 % of control

O=C(O)COc1ccc(C2(c3ccc(OCC(=O)O)cc3)CC3CC2C2CCCC32)cc1 (stereo not drawn) (tested in a mixture with another compound)
inactive: [9] 93 % of control | [10] 93 % of control | [11] 106 % of control

N#CC1(NC(Cc2ccccc2)c2ccccc2)CCCCCCCCCCC1 (stereo not drawn)
inactive: [9] 101 % of control | [10] 94 % of control | [11] 97 % of control

CN(C)c1ccc(C=Nc2ccc(Cl)cc2)cc1
inactive: [12] 91 % of control | [13] 93 % of control | [14] 93 % of control | [15] 91 % of control | [16] 90 % of control | [17] 91 % of control

CCOC(=O)CN1CCC(C2(c3cc4ccccc4[nH]3)OCCO2)CC1
inactive: dose: 12.0 mg/kg/injection, schedule: Q04DX003 (ip), vehicle: Klucel (hydroxypropylcellulose) (HPC) 91 % of control | dose: 25.0 mg/kg/injection, schedule: Q04DX003 (ip), vehicle: Klucel (hydroxypropylcellulose) (HPC) 89 % of control | dose: 50.0 mg/kg/injection, schedule: Q04DX003 (ip), vehicle: Klucel (hydroxypropylcellulose) (HPC) 100 % of control | [18] 97 % of control | [19] 103 % of control | [20] 101 % of control

CC(=O)c1ccc(N)cc1
inactive: dose: 100.0 mg/kg/injection, schedule: Q01DX009 (ip), vehicle: other 94 % of control | dose: 100.0 mg/kg/injection, schedule: Q04DX002 (ip), vehicle: other 100 % of control | dose: 200.0 mg/kg/injection, schedule: Q01DX009 (ip), vehicle: other 102 % of control | dose: 200.0 mg/kg/injection, schedule: Q04DX002 (ip), vehicle: other 117 % of control | dose: 400.0 mg/kg/injection, schedule: Q04DX002 (ip), vehicle: other 114 % of control

COc1ccccc1C(O)c1cnc(C)n1Cc1ccccc1 (stereo not drawn)
inactive: [12] 113 % of control | [18] 96 % of control and 97 % of control | [21] 96 % of control and 98 % of control | [13] 92 % of control | [14] 100 % of control | [19] 96 % of control and 103 % of control | [22] 98 % of control and 92 % of control | [15] 92 % of control | [16] 95 % of control | [20] 93 % of control and 97 % of control | [23] 95 % of control and 92 % of control | [17] 95 % of control

CCC1C(=O)CC(C(=O)O)C1C(=O)O (stereo not drawn)
inactive: [9] 100 % of control | [10] 96 % of control

COCC1OC(n2cc(C)c(=O)n(C)c2=O)CC1OC (stereo not drawn)
inactive: dose: 50.0 mg/kg/injection, schedule: Q01DX005 (ip), vehicle: saline 102 % of control | dose: 100.0 mg/kg/injection, schedule: Q01DX005 (ip), vehicle: saline 98 % of control | dose: 200.0 mg/kg/injection, schedule: Q01DX005 (ip), vehicle: saline 100 % of control

CC[N+](C)(C)c1ncnc2nc[nH]c12
inactive: [24] 103 % of control | dose: 50.0 mg/kg/injection, schedule: Q04DX003 (ip), vehicle: saline 95 % of control | [1] 106 % of control | [25] 110 % of control | [2] 100 % of control | [3] 111 % of control | [4] 96 % of control

C=C(C)C1CCC2(C(=O)O)CCC3(C)C(CCC4C5(C)CCC(=O)C(C)(C)C5CCC43C)C12 (stereo not drawn)
inactive: [13] 102 % of control | [15] 96 % of control | [17] 94 % of control

[N-]=[N+]=Nc1ccc2[nH]c3ccccc3c(=O)c2c1
inactive: [24] 90 % of control | [25] 93 % of control | dose: 100.0 mg/kg/injection, schedule: Q04DX003 (ip), vehicle: acetone 92 % of control | dose: 200.0 mg/kg/injection, schedule: Q01DX009 (ip), vehicle: saline 95 % of control | dose: 200.0 mg/kg/injection, schedule: Q04DX003 (ip), vehicle: acetone 97 % of control | dose: 400.0 mg/kg/injection, schedule: Q04DX003 (ip), vehicle: acetone 97 % of control

Cc1cc(N=Cc2ccc(Cl)cc2)c(N=Cc2ccc(Cl)cc2)cc1C
inactive: dose: 100.0 mg/kg/injection, schedule: Q01DX005 (ip), vehicle: Klucel (hydroxypropylcellulose) (HPC) 99 % of control | [18] 108 % of control | [21] 95 % of control | dose: 200.0 mg/kg/injection, schedule: Q01DX005 (ip), vehicle: Klucel (hydroxypropylcellulose) (HPC) 96 % of control | [19] 115 % of control | [22] 95 % of control | dose: 400.0 mg/kg/injection, schedule: Q01DX005 (ip), vehicle: Klucel (hydroxypropylcellulose) (HPC) 92 % of control | [20] 97 % of control | [23] 95 % of control

Cc1ccccc1CCC(=O)OCC(=O)c1ccc(-c2ccccc2)cc1
inactive: [1] 96 % of control | [3] 88 % of control | [5] 92 % of control

c1ccc2[nH]c(CN3CCCCC3)cc2c1
inactive: dose: 12.5 mg/kg/injection, schedule: Q04DX003 (ip), vehicle: saline with Tween-80 103 % of control | dose: 25.0 mg/kg/injection, schedule: Q04DX003 (ip), vehicle: saline with Tween-80 98 % of control | dose: 50.0 mg/kg/injection, schedule: Q04DX003 (ip), vehicle: saline with Tween-80 98 % of control

O=C(CCCC(=O)N/N=C/c1ccc2c(c1)OCO2)N/N=C\c1ccc2c(c1)OCO2
inactive: dose: 50.0 mg/kg/injection, schedule: Q01DX001 (ip), vehicle: saline 103 % of control | [1] 103 % of control | [3] 106 % of control | [5] 100 % of control

CCN(CC)C(=S)SCC(=O)O
inactive: dose: 100.0 mg/kg/injection, schedule: Q04DX003 (ip), vehicle: other 101 % of control | dose: 200.0 mg/kg/injection, schedule: Q04DX003 (ip), vehicle: other 98 % of control | dose: 400.0 mg/kg/injection, schedule: Q04DX003 (ip), vehicle: other 98 % of control

O=C(Oc1ccc([N+](=O)[O-])cc1)c1cccc(S(=O)(=O)F)c1
inactive: [6] 93 % of control and 102 % of control | dose: 100.0 mg/kg/injection, schedule: Q01DX009 (ip), vehicle: carboxymethylcellulose (CMC) 103 % of control and 110 % of control | dose: 100.0 mg/kg/injection, schedule: Q04DX003 (ip), vehicle: carboxymethylcellulose (CMC) 104 % of control | [7] 98 % of control and 101 % of control | dose: 200.0 mg/kg/injection, schedule: Q01DX009 (ip), vehicle: carboxymethylcellulose (CMC) 92 % of control and 94 % of control | dose: 200.0 mg/kg/injection, schedule: Q04DX003 (ip), vehicle: carboxymethylcellulose (CMC) 102 % of control and 90 % of control | [8] 98 % of control and 101 % of control | dose: 400.0 mg/kg/injection, schedule: Q01DX009 (ip), vehicle: carboxymethylcellulose (CMC) 92 % of control | dose: 400.0 mg/kg/injection, schedule: Q04DX003 (ip), vehicle: carboxymethylcellulose (CMC) 96 % of control and 90 % of control

From PubChem BioAssay AID248 (DTP/NCI, 2004)
